Assay results: paper PMC3380923, “Structure Analysis of Entamoeba histolytica DNMT2 (EhMeth)” (PLoS ONE, 2012)

Molecular target: T1, EhMeth (Entamoeba histolytica, UniProt Q6Q386)
T1 construct: gene meth; GST fusion from pGEX6-P3 in E. coli BL21(DE3), GST cleaved off with PreScission protease; one molecule per asymmetric unit
T1 sequence (Q6Q386 1-322): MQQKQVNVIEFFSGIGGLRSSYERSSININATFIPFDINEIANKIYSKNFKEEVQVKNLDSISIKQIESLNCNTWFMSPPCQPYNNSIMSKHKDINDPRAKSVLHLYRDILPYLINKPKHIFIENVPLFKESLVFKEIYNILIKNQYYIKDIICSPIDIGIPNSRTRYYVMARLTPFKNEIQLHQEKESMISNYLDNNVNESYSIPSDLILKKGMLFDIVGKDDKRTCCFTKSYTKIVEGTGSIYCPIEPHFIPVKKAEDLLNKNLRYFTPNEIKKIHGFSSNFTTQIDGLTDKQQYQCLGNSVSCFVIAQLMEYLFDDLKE
Assay: X-ray crystal structure, […] Å
Details: co-crystallised with 150x molar excess AdoHcy, pH 6.5, 20 °C; cofactor-binding pocket

For Nc1ncnc2c1ncn2[C@@H]1O[C@H](CSCC[C@H](N)C(=O)O)[C@@H](O)[C@H]1O [AdoHcy], the “X-ray crystal structure, 2.15 Å” value was “the crystal structure of the binary complex comprising EhMeth and AdoHcy is presented”.
